Key:
[1] = system: Rattus norvegicus; assay: Anticoagulant activity in Sprague-Dawley rat assessed as increase of prothombin time at 10 mg/kg, po after 24 hrs relative to control; assay type: functional
[2] = molecular target: T1, Vitamin K epoxide reductase complex subunit 1 (Rattus norvegicus, UniProt Q6TEK4); assay: Inhibition of VKORC1 in rat liver microsomes in presence of 0.003 to 0.2 mM vitamin K
T1 sequence (Q6TEK4 whole entry): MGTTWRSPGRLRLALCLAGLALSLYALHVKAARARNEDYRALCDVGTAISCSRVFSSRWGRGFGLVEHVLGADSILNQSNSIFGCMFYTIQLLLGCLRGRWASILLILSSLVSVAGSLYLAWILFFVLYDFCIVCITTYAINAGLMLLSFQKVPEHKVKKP

[3] = system: Liver; assay: Drug uptake in Sprague-Dawley rat liver assessed per gram of liver at 10 mg/kg, po after 24 hrs by HPLC-UV analysis; assay type: ADME, organism-based; conditions: in vivo
[4] = system: Liver; assay: Drug uptake in Sprague-Dawley rat liver assessed per gram of liver at 10 mg/kg, po after 72 hrs by HPLC-UV analysis; assay type: ADME, organism-based; conditions: in vivo
[5] = system: Liver; assay: Drug uptake in Sprague-Dawley rat liver assessed per gram of liver at 10 mg/kg, po by HPLC-UV analysis; assay type: ADME, organism-based; conditions: in vivo
[6] = system: Rattus norvegicus; assay: Anticoagulant activity in Sprague-Dawley rat assessed as increase of prothombin time at 10 mg/kg, po after 7 hrs relative to control; assay type: functional
[7] = system: Rattus norvegicus; assay: Anticoagulant activity in Sprague-Dawley rat assessed as increase of prothombin time at 10 mg/kg, po after 72 hrs relative to control; assay type: functional
[8] = system: Liver; assay: Drug uptake in Sprague-Dawley rat liver assessed per gram of liver at 10 mg/kg, po after 7 hrs by HPLC-UV analysis; assay type: ADME, organism-based; conditions: in vivo

| SMILES | fold change (FC) [1] | Ki [2] | Drug uptake [3] | other results |
| --- | --- | --- | --- | --- |
| CCCCCCCCCCCC(c1ccc(F)cc1)c1c(O)c2ccccc2oc1=O (stereo not given) | 2 | 20 nM | 0.7 µg/g | – |
| CCC(c1ccccc1)c1c(O)c2ccccc2oc1=O (stereo not given) [PHENPROCOUMON] | 5.5 | 200 nM | 12.8 µg/g | Drug uptake [4]: 1.7 µg/g |
| CCCCCCCCCCCC(c1ccccc1)c1c(O)c2ccccc2oc1=O (stereo not given) | 1 | 30 nM | 0.7 µg/g | – |
| CC(C)CCCC(C)CCCC(C)CCCC(C)CC(c1ccccc1)c1c(O)c2ccccc2oc1=O (stereo not given) | 1 | 200 nM | – | Drug uptake ([5]; BLD = below limit of detection): Bld |
| C/C(=C\Cc1c(O)c2ccccc2oc1=O)CCCC(C)CCCC(C)CCCC(C)C (stereo not given) | 1 | 20 nM | – | Drug uptake [5]: 1.3 µg/g |
| CCCCCCCCCCCC(c1ccc(C(C)(C)C)cc1)c1c(O)c2ccccc2oc1=O (stereo not given) | – | 22000 nM | – | – |
| CC(C)CCCC(C)CCCC(C)CCCC(C)CCc1c(O)c2ccccc2oc1=O (stereo not given) | 1 | 50 nM | – | Drug uptake ([5]; BLD = below limit of detection): Bld |
| CCCCCCCCCCCC(c1ccc(Cl)cc1)c1c(O)c2ccccc2oc1=O (stereo not given) | 4 | 20 nM | 3 µg/g | fold change (FC) [6]: 1; fold change (FC) [7]: 1; Drug uptake [8]: 13 µg; Drug uptake [4]: 1 µg/g |
| CCCCCCCCc1c(O)c2ccccc2oc1=O | – | 260 nM | – | – |
| CCCCCCCCCCCCc1c(O)c2ccccc2oc1=O | 1 | 50 nM | 0.7 µg/g | – |
| CCCCCCc1c(O)c2ccccc2oc1=O | – | 3900 nM | – | – |
| CCCCCCCCCCc1c(O)c2ccccc2oc1=O | – | 90 nM | – | – |
| CCCCCCCCCCCc1c(O)c2ccccc2oc1=O | – | 60 nM | – | – |
| CCCCCCCCCCCC(c1ccc(Cl)cc1Cl)c1c(O)c2ccccc2oc1=O (stereo not given) | 2 | 90 nM | 3.5 µg/g | fold change (FC) [7]: 1; Drug uptake [4]: 0.7 µg/g |
| CCCCCCCCCCCC(c1ccc(OC)cc1)c1c(O)c2ccccc2oc1=O (stereo not given) | – | 100 nM | – | – |

From ChEMBL document CHEMBL4004874, “Synthesis and biological evaluation of C-3 aliphatic coumarins as vitamin K antagonists” (Bioorg Med Chem Lett, 2017)
